From US10183036B2, “Use of nicotinic acid riboside or nicotinamide riboside derivatives, and reduced derivatives thereof, as NAD+ increasing precursors” (Chromadex Inc., priority 2016, dated 2019)

What was measured:
Hela cells = experiment: NAD content in cultured Hela cells supplemented with NAD+ precursor (EnzyChrom NAD+/NADH assay kit); format: cell-based; details: 100 μM precursor, 24 h at 37° C., control = 100.0; for activity at 100 µM: Homo sapiens
Description: Hela cells (passages 5-9) were grown in cell culture medium DMEM with 10% serum and were seeded in 6-well plates with a density of 3×10^5 cells per well containing 1 ml of culture medium overnight. The wells were aspirated, washed with PBS and 2 mL of fresh cell culture media was added. […] The media was aspirated and the wells washed with PBS, and for each condition 1×10^5 cells were isolated and analyzed using an ENZYCHROM™ NAD+/NADH ASSAY KIT (E2ND-100) following the manufacturer protocol (BioAssay Systems, Hayward, Calif.). This standard assay provides a quantitative colorimetric determination of NAD+/NADH at 565 nm.
Further, FIG. 9 presents the same data as a fold-increase in NAD over control. FIG. 8 presents a measurement of absolute NAD values (μM) in Hela cells (n=4) cultured in growth media supplemented with 100 μM of the corresponding NAD^+ precursor (nicotinyl riboside test compound) for 24 hours, versus control (NAD content in cells measured in the absence of treatment compound). A control value was determined for each replicate data set.

cells = details: Kulikova et al. 2015; cited from earlier work
[1] = Stability in aqueous solution at various temperature and pH; format: physicochemical
Description: Nicotinamide riboside (NR) was prepared in 1000 ppm aqueous solution (w/v) at 2.5, 3.5 and 4.7 pH levels. Nicotinic acid riboside (NAR) was prepared n 1000 ppm aqueous solution (w/v) at 2.5, 3.5 and 6.2 pH levels. The six sample solutions were aliquoted into various small sealed vials to be used as individual sample pull points for analysis.

SMILES	activity at 100 µM (Hela cells) [%]	other results
CC(=O)OC[C@H]1O[C@@H](N2C=CCC(C(N)=O)=C2)[C@H](OC(C)=O)[C@@H]1OC(C)=O [NRH TA, 1-(2′,3′,5′-triacetyl-beta-D-ribofuranosyl)-1,4-dihydronicotinamide]	146	–
O=C(O)c1ccc[n+]([C@@H]2O[C@H](CO)[C@H](O)[C@H]2O)c1 [NAR, Nicotinic acid riboside]	295	concentration that supports cell survival (cells): about 1 micromolar; assay (concentration remaining) after storage ([1]; 1000 ppm aqueous solution, 4° C., after 140 days): greater than 95%; stability in comparison to NR ([1]; aqueous solution, 4° C. and 25° C., all measured pH levels): much greater stability; stability over time in weeks ([1]; aqueous solution, higher temperature and lower pH): markedly decreased
CC(=O)O[C@@H]1[C@@H](COC(=O)c2cccnc2)OC(=O)[C@@H]1OC(C)=O [cyclic, 2′,3′-diacetyl-5′-nicotinoyl ribolactone]	–	NAD % vs control (Hela cells): 178.0%
CC(=O)OC[C@H]1O[C@@H]([n+]2cccc(C(=O)O)c2)[C@H](OC(C)=O)[C@@H]1OC(C)=O [NAR TA, 1-(2′,3′,5′-triacetyl-beta-D-ribofuranosyl)-nicotinic acid]	173	–
NC(=O)c1ccc[n+]([C@@H]2O[C@H](CO)[C@@H](O)[C@H]2O)c1 [NR, Nicotinamide riboside]	141	amount required to maintain viability relative to NAR (cells): 10 times
CC(=O)OC[C@H]1O[C@@H]([n+]2cccc(C(N)=O)c2)[C@H](OC(C)=O)[C@@H]1OC(C)=O [NR TA, 1-(2′,3′,5′-triacetyl-beta-D-ribofuranosyl)-nicotinamide]	199	–
O=C(O)C1=CN([C@@H]2O[C@H](CO)[C@@H](O)[C@H]2O)C=CC1 [NARH, 1-(beta-D-ribofuranosyl)-1,4-dihydronicotinic acid]	147	–
